Results as given in PubChem BioAssay (NCI).
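Grown in 96-well plates, cells were treated for 48 hours with each compound at five concentrations. Insufficient inhibition: endpoint recorded as highest concentration tested. GI50 is the concentration that inhibits growth by half. At the TGI there is no net growth.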

What was measured:
Experiment in all cases: DTP human tumour cell line panel, 48 h
786-0 renal = tested on: 786-0 renal
A498 renal = tested on: A498 renal
A549 NSCLC = tested on: A549 NSCLC
ACHN renal = tested on: ACHN renal
BT-549 breast = tested on: BT-549 breast
CAKI-1 renal = tested on: CAKI-1 renal
CCRF-CEM leukemia = tested on: CCRF-CEM leukemia
COLO 205 colon = tested on: COLO 205 colon
DU-145 prostate = tested on: DU-145 prostate
HCC-2998 colon = tested on: HCC-2998 colon
HCT-116 colon = tested on: HCT-116 colon
HCT-15 colon = tested on: HCT-15 colon
HL-60(TB) leukemia = tested on: HL-60(TB) leukemia
HOP-62 NSCLC = tested on: HOP-62 NSCLC
HOP-92 NSCLC = tested on: HOP-92 NSCLC
HS 578T breast = tested on: HS 578T breast
HT29 colon = tested on: HT29 colon
IGROV1 ovarian = tested on: IGROV1 ovarian
K-562 leukemia = tested on: K-562 leukemia
KM12 colon = tested on: KM12 colon
LOX IMVI melanoma = tested on: LOX IMVI melanoma
M14 melanoma = tested on: M14 melanoma
MALME-3M melanoma = tested on: MALME-3M melanoma
MCF7 breast = tested on: MCF7 breast
MDA-MB-231 breast = tested on: MDA-MB-231 breast
MDA-MB-435 = tested on: MDA-MB-435
MOLT-4 leukemia = tested on: MOLT-4 leukemia
NCI-H226 lung = tested on: NCI-H226 lung
NCI-H23 lung = tested on: NCI-H23 lung
NCI-H460 lung = tested on: NCI-H460 lung
NCI-H522 lung = tested on: NCI-H522 lung
NCI/ADR-RES ovarian = tested on: NCI/ADR-RES ovarian
OVCAR-3 ovarian = tested on: OVCAR-3 ovarian
OVCAR-4 ovarian = tested on: OVCAR-4 ovarian
OVCAR-5 ovarian = tested on: OVCAR-5 ovarian
OVCAR-8 ovarian = tested on: OVCAR-8 ovarian
PC-3 prostate = tested on: PC-3 prostate
RPMI-8226 leukemia = tested on: RPMI-8226 leukemia
RXF 393 renal = tested on: RXF 393 renal
SF-268 CNS = tested on: SF-268 CNS
SF-295 CNS = tested on: SF-295 CNS
SF-539 CNS = tested on: SF-539 CNS
SK-MEL-2 melanoma = tested on: SK-MEL-2 melanoma
SK-MEL-28 melanoma = tested on: SK-MEL-28 melanoma
SN12C renal = tested on: SN12C renal
SNB-19 CNS = tested on: SNB-19 CNS
SNB-75 CNS = tested on: SNB-75 CNS
SR leukemia = tested on: SR leukemia
SW-620 colon = tested on: SW-620 colon
T-47D breast = tested on: T-47D breast
TK-10 renal = tested on: TK-10 renal
U251 CNS = tested on: U251 CNS
UACC-62 melanoma = tested on: UACC-62 melanoma
UO-31 renal = tested on: UO-31 renal

In the case of `CN(CCOc1ccc(NS(C)(=O)=O)cc1)CCc1ccc(NS(C)(=O)=O)cc1`, the GI50 (786-0 renal) is reported as greater than 100 µM, the TGI (786-0 renal) is reported as greater than 100 µM and the GI50 (A498 renal) is reported as 96 µM. The TGI (A498 renal) was greater than 100 µM, the GI50 (A549 NSCLC) was greater than 100 µM and the TGI (A549 NSCLC) was greater than 100 µM. The GI50 (ACHN renal) was greater than 100 µM, the TGI (ACHN renal) was greater than 100 µM and the GI50 (BT-549 breast) was greater than 100 µM. It also gave a TGI (BT-549 breast) greater than 100 µM, a GI50 (CAKI-1 renal) greater than 100 µM and a TGI (CAKI-1 renal) greater than 100 µM. It also gave a GI50 (CCRF-CEM leukemia) greater than 100 µM, a TGI (CCRF-CEM leukemia) greater than 100 µM and a GI50 (COLO 205 colon) greater than 100 µM. For the same compound, the TGI (COLO 205 colon) was greater than 100 µM, the GI50 (DU-145 prostate) was greater than 100 µM and the TGI (DU-145 prostate) was greater than 100 µM. The GI50 (HCC-2998 colon) was greater than 100 µM, the TGI (HCC-2998 colon) was greater than 100 µM and the GI50 (HCT-116 colon) was greater than 100 µM. For the same compound, the TGI (HCT-116 colon) was greater than 100 µM, the GI50 (HCT-15 colon) was greater than 100 µM and the TGI (HCT-15 colon) was greater than 100 µM. It also gave a GI50 (HL-60(TB) leukemia) greater than 100 µM, a TGI (HL-60(TB) leukemia) greater than 100 µM and a GI50 (HOP-62 NSCLC) greater than 100 µM. For the same compound, the TGI (HOP-62 NSCLC) was greater than 100 µM, the GI50 (HOP-92 NSCLC) was greater than 100 µM and the TGI (HOP-92 NSCLC) was greater than 100 µM. For the same compound, the GI50 (HS 578T breast) was greater than 100 µM, the TGI (HS 578T breast) was greater than 100 µM and the GI50 (HT29 colon) was greater than 100 µM. The TGI (HT29 colon) was greater than 100 µM, the GI50 (IGROV1 ovarian) was greater than 100 µM and the TGI (IGROV1 ovarian) was greater than 100 µM. It also gave a GI50 (K-562 leukemia) greater than 100 µM, a TGI (K-562 leukemia) greater than 100 µM and a GI50 (KM12 colon) greater than 100 µM. It also gave a TGI (KM12 colon) greater than 100 µM, a GI50 (LOX IMVI melanoma) greater than 100 µM and a TGI (LOX IMVI melanoma) greater than 100 µM. It also gave a GI50 (M14 melanoma) greater than 100 µM, a TGI (M14 melanoma) greater than 100 µM and a GI50 (MALME-3M melanoma) greater than 100 µM. For the same compound, the TGI (MALME-3M melanoma) was greater than 100 µM, the GI50 (MCF7 breast) was greater than 100 µM and the TGI (MCF7 breast) was greater than 100 µM. For the same compound, the GI50 (MDA-MB-231 breast) was greater than 100 µM, the TGI (MDA-MB-231 breast) was greater than 100 µM and the GI50 (MDA-MB-435) was greater than 100 µM. The TGI (MDA-MB-435) was greater than 100 µM, the GI50 (MOLT-4 leukemia) was greater than 100 µM and the TGI (MOLT-4 leukemia) was greater than 100 µM. For the same compound, the GI50 (NCI-H226 lung) was greater than 100 µM, the TGI (NCI-H226 lung) was greater than 100 µM and the GI50 (NCI-H23 lung) was greater than 100 µM. For the same compound, the TGI (NCI-H23 lung) was greater than 100 µM, the GI50 (NCI-H460 lung) was greater than 100 µM and the TGI (NCI-H460 lung) was greater than 100 µM. It also gave a GI50 (NCI-H522 lung) greater than 100 µM, a TGI (NCI-H522 lung) greater than 100 µM and a GI50 (NCI/ADR-RES ovarian) greater than 100 µM. The TGI (NCI/ADR-RES ovarian) was greater than 100 µM, the GI50 (OVCAR-3 ovarian) was greater than 100 µM and the TGI (OVCAR-3 ovarian) was greater than 100 µM. The GI50 (OVCAR-4 ovarian) was greater than 100 µM, the TGI (OVCAR-4 ovarian) was greater than 100 µM and the GI50 (OVCAR-5 ovarian) was greater than 100 µM. For the same compound, the TGI (OVCAR-5 ovarian) was greater than 100 µM, the GI50 (OVCAR-8 ovarian) was greater than 100 µM and the TGI (OVCAR-8 ovarian) was greater than 100 µM. The GI50 (PC-3 prostate) was greater than 100 µM, the TGI (PC-3 prostate) was greater than 100 µM and the GI50 (RPMI-8226 leukemia) was greater than 100 µM. The TGI (RPMI-8226 leukemia) was greater than 100 µM, the GI50 (RXF 393 renal) was greater than 100 µM and the TGI (RXF 393 renal) was greater than 100 µM. For the same compound, the GI50 (SF-268 CNS) was greater than 100 µM, the TGI (SF-268 CNS) was greater than 100 µM and the GI50 (SF-295 CNS) was greater than 100 µM. It also gave a TGI (SF-295 CNS) greater than 100 µM, a GI50 (SF-539 CNS) greater than 100 µM and a TGI (SF-539 CNS) greater than 100 µM. For the same compound, the GI50 (SK-MEL-2 melanoma) was greater than 100 µM, the TGI (SK-MEL-2 melanoma) was greater than 100 µM and the GI50 (SK-MEL-28 melanoma) was greater than 100 µM. It also gave a TGI (SK-MEL-28 melanoma) greater than 100 µM, a GI50 (SN12C renal) greater than 100 µM and a TGI (SN12C renal) greater than 100 µM. For the same compound, the GI50 (SNB-19 CNS) was greater than 100 µM, the TGI (SNB-19 CNS) was greater than 100 µM and the GI50 (SNB-75 CNS) was greater than 100 µM. It also gave a TGI (SNB-75 CNS) greater than 100 µM, a GI50 (SR leukemia) greater than 100 µM and a TGI (SR leukemia) greater than 100 µM. The GI50 (SW-620 colon) was greater than 100 µM, the TGI (SW-620 colon) was greater than 100 µM and the GI50 (T-47D breast) was greater than 100 µM. The TGI (T-47D breast) was greater than 100 µM, the GI50 (TK-10 renal) was greater than 100 µM and the TGI (TK-10 renal) was greater than 100 µM. It also gave a GI50 (U251 CNS) greater than 100 µM, a TGI (U251 CNS) greater than 100 µM and a GI50 (UACC-62 melanoma) greater than 100 µM. The TGI (UACC-62 melanoma) was greater than 100 µM, the GI50 (UO-31 renal) was greater than 100 µM and the TGI (UO-31 renal) was greater than 100 µM.
